Experimental data reported in US8242126B2, “Quinazolinedione derivatives, preparation thereof and therapeutic uses thereof” (Sanofi, priority 2007, dated 2012).
Read-outs that look alike come from different tables or passages of the source.

Legend:
CLL-PBMCs = conditions: PBMCs of patients suffering from chronic lymphocytic leukaemia; cited from earlier work
PBMCs of normal subjects = conditions: cited from earlier work
[1] = system: Human peripheral blood mononuclear cells (PBMNCs); test: Inhibition of T cell proliferation: [3H]-thymidine incorporation in PBMNCs activated by anti-CD3 and anti-CD28; assay type: cell-based; conditions: PBMC, 72 h + 8 h [3H]-thymidine, mean of the three experiments
Protocol: Human peripheral blood mononuclear cells (PBMNCs) were separated from the blood of healthy donors using a centrifuging gradient on a Ficoll-Paque™ Plus (GE Healthcare Bio-Sciences AB code 17-1440-03, Uppsala). A mixture of 5.0 ml of blood and 5.0 ml of phosphate buffered saline (PBS Gibco 14190) was deposited on 10.0 ml of Ficoll-Paque in a 50 ml Blue max tube (Becton Dickinson 352070) and centrifuged with 900 g for 30 min. The band of PBMNCs was withdrawn, washed in PBS and then centrifuged with 900 g for 10 minutes. Finally, the PBMNCs were suspended (2.5×10^5 cells/ml) in an RPMI 1640 complete medium+Glutamax (Gibco 61870) additivated with 10% of FCS, the complement of which has been heat inactivated, and with penicillin-streptomycin (Gibco 15140).
The PBMNCs were cultured in flat-bottomed 96-well plates, in a proportion of 0.5×10^5 cells/well in 200 μl of RPMI 1640 complete medium. The cells were activated by two monoclonal antibodies, one of anti-CD3 specificity, 20 ng/ml (Pharmingen 555329), and the other of anti-CD28 specificity, 200 ng/ml (Pharmingen 555725), in the presence of PDE7 inhibitors at five different concentrations, 10 μM, 3.3 μM, 1.1 μM, 0.36 μM and 0.12 μM, or of cyclosporin A, which acts as positive control of the halting of proliferation. […] After incubating for an additional 8 hours, the PBMNCs were collected on a Tomtec cell collector (Wallac) using a glass fibre filter (Wallac 1450-421), and incorporation of the [^3H]-thymidine in the nucleus of the cells was measured using a Microbeta 1450-Trilux (Wallac). The inhibition of the proliferation, expressed as percentage, was calculated using the following equation: 100−(cpm mean value of the cells in the presence of the compound/cpm mean value of the cells in the absence of the compound)×100. […]

Human PDE7 = target: T1, Human PDE7 (Homo sapiens, UniProt Q13946); test: PDE7 enzymatic assay (radioactive cAMP / 5′-AMP separation by TLC on PEI cellulose); assay type: biochemical
T1 construct: Human PDE7 was partially purified from the HUT-78 cell line; endogenous in cells
T1 sequence (Q13946 whole entry): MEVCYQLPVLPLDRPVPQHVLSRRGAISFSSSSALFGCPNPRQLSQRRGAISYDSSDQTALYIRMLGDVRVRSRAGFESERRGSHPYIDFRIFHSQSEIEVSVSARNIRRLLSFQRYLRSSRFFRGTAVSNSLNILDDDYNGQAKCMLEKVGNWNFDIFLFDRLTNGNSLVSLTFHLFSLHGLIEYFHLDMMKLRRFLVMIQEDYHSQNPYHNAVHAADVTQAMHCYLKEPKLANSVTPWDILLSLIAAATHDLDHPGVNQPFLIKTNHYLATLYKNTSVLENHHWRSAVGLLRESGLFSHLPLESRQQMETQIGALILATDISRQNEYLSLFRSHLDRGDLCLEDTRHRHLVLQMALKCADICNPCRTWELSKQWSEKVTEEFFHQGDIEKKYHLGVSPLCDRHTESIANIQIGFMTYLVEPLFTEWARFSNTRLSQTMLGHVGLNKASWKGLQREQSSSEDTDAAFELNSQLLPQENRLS
Protocol: The ability of the compounds of formula (I) to inhibit PDE7 is measured using an enzymatic assay based on the separation of radioactive cAMP (substrate of PDE7) from the radioactive 5′-AMP (product of the enzymatic reaction) by thin layer chromatography on polyethyleneimine (PEI) cellulose, after halting the enzymatic reaction. The 5′-AMP is extracted quantitatively from the PEI cellulose and its radioactivity is measured using a liquid scintillation counter.
The inhibitory activity of the compounds of formula (I) with regard to PDE7 is represented by the inhibition constant IC50, defined as the concentration of the compound (inhibitor) tested in the assay which makes it possible to reduce the enzymatic activity of PDE7 by 50%. The lower the IC50 values, the greater the inhibitory power of the compounds.
Human PDE7 was partially purified from the HUT-78 cell line by following a method analogous to that described by Bloom and Beavo (Proc. Natl. Acad. Sci. USA, (1996) 93, 14188-14192). The enzyme preparation obtained is stored at −80° C. in a buffer comprising 20 mM of Tris-HCl (pH 7.0), 5 mM of MgCl2, 4 mM of EDTA, 1 mM of dithiothreitol and 20% of glycerol. […] The Michaelis constant (Km) of PDE7 for cAMP, measured using the radiochemical assay described below, is 21 nM.
The compounds of formula (I) to be tested as PDE7 inhibitors are dissolved in DMSO at a concentration of 10 mM. These solutions are subsequently diluted in cascade in DMSO in order to obtain solutions with the desired concentrations. The latter are subsequently diluted to one-twentieth in the assay buffer to give 5% DMSO solutions. The latter are finally diluted to one-fifth in the enzymatic assay.
The assay is carried out in 1.5 ml Eppendorf tubes comprising 40 mM of Tris-HCl (pH 7.5), 15 mM of MgCl2, 1 mM of EGTA, 0.5 mg/ml of bovine serum albumin, […] of [^3H]-cAMP (corresponding to a cAMP concentration of between 15 and 25 nM), 10 μM of rolipram and PDE7 in a final volume of 100 μl. The assay is carried out in the absence (control sample) or in the presence (treated sample) of the compounds tested as PDE7 inhibitors. The final concentration of DMSO in the assay is 2%. The reaction is initiated by addition of enzyme and the samples are maintained at ambient temperature for 30 minutes. The enzymatic dilution is adjusted so as to obtain a degree of conversion of 10 to 15%. The enzymatic reaction is halted by immersion of the stoppered Eppendorf tubes in a water bath at 100° C. for 3 minutes. Blanks (reaction halted immediately after addition of the enzyme) are included in each experiment. The samples are subsequently centrifuged at 10 000×g for 1 minute and an aliquot portion of 10 μl of supernatant is deposited 2 cm from the bottom edge of a sheet of PEI cellulose on which 10 μg of cAMP and 10 μg of 5′-AMP have been deposited beforehand. In order to facilitate the migration and to make it easier to cut out the strips of PEI cellulose comprising the 5′-AMP, which take place subsequently, 18 migration lanes with a width of 1 cm are delimited per plate by scraping the cellulose with a spatula over a width of 1 mm. The plates are developed over their entire length with a 0.30 M solution of LiCl in water by ascending chromatography. The 5′-AMP (Rf=0.20) and the cAMP (Rf=0.47) are visualized under UV light at 254 nm. The strips of PEI cellulose comprising the 5′-AMP are cut out and the nucleotide is quantitatively extracted in counting flasks with 2 ml of a solution which is 16M in formic acid and 2M in ammonium formate in water (rotary stirrer for 15 min). After addition of 10 ml of scintillation liquid (OptiPhase HiSafe 3 from Perkin-Elmer/Wallac), the radioactivity is counted using a liquid scintillation counter (model 1414, Perkin-Elmer/Wallac). Each assay is carried out in duplicate. […]

PDE8 = PDE8 enzymatic assay equivalent to that described for PDE7; assay type: biochemical
[2] = human PDE7 partially purified from HUT-78 cells, 10 μM rolipram present, read-out: IC50 (inhibition of PDE7)
[3] = table comparing PDE7 and PDE8, read-out: IC50 PDE7

Cc1ccc([N+](=O)[O-])cc1S(=O)(=O)N(C)C [BRL-50481]
apoptosis of CLL-PBMCs (CLL-PBMCs): induces in a dose-dependent way the apoptosis
effect on PBMCs of normal subjects (PBMCs of normal subjects): without effect

COc1ccc(Cn2c(=O)c3cc(OC(C)C#N)ccc3n(C3CCN(C=O)CC3)c2=O)cc1OC (stereo not drawn) [No. 1, 2-{[3-(3,4-dimethoxybenzyl)-1-(1-formylpiperidin-4-yl)-2,4-dioxo-1,2,3,4-tetrahydroquinazolin-6-yl]oxy}propanenitrile]
IC50 [1]: 400 nM

COc1ccc(Cn2c(=O)c3cc(OC(CF)CF)ccc3n(C3CCN(C=O)CC3)c2=O)cc1OC [No. 11, 4-[3-(3,4-dimethoxybenzyl)-6-[2-fluoro-1-(fluoromethyl)ethoxy]-2,4-dioxo-3,4-dihydroquinazolin-1(2H)-yl]piperidine-1-carbaldehyde]
IC50 (Human PDE7; [2]): 39 nM
IC50 (PDE8): 140 nM
IC50 [1]: 900 nM

COc1ccc(Cn2c(=O)c3cc(OCC(F)F)ccc3n(C3CCN(C=O)CC3)c2=O)cc1OC [No. 16, 4-[6-(2,2-difluoroethoxy)-3-(3,4-dimethoxybenzyl)-2,4-dioxo-3,4-dihydroquinazolin-1(2H)-yl]piperidine-1-carbaldehyde]
IC50 (Human PDE7; [2]): 15 nM
IC50 [1]: 1300 nM

COc1ccc(Cn2c(=O)c3cc(OCCO)ccc3n(C3CCN(C=O)CC3)c2=O)cc1OC [No. 72, 4-[3-(3,4-dimethoxybenzyl)-6-(2-hydroxyethoxy)-2,4-dioxo-3,4-dihydroquinazolin-1(2H)-yl]piperidine-1-carbaldehyde]
IC50 (Human PDE7; [2]): 89 nM

COc1ccc(Cn2c(=O)c3cc(CNC(C)=O)ccc3n(C3CCN(C=O)C3)c2=O)cc1OC (stereo not drawn) [No. 77, N-{[3-(3,4-dimethoxybenzyl)-1-(1-formylpyrrolidin-3-yl)-2,4-dioxo-1,2,3,4-tetrahydroquinazolin-6-yl]methyl}acetamide]
IC50 (Human PDE7; [2]): 820 nM

COc1ccc(Cn2c(=O)c3c(Cl)cc(Cl)cc3n(C3CCN(C=O)CC3)c2=O)cc1OC [No. 97, 4-[5,7-dichloro-3-(3,4-dimethoxybenzyl)-2,4-dioxo-3,4-dihydroquinazolin-1(2H)-yl]piperidine-1-carbaldehyde]
IC50 (Human PDE7; [2]): 61 nM

COc1ccc(Cn2c(=O)c3cc(OC(F)F)ccc3n(C3CCN(C=O)CC3)c2=O)cc1OC [No. 111, 4-[6-(difluoromethoxy)-3-(3,4-dimethoxybenzyl)-2,4-dioxo-3,4-dihydroquinazolin-1(2H)-yl]piperidine-1-carbaldehyde]
IC50 (Human PDE7; [2]): 6.7 nM

COc1cc(Cn2c(=O)c3cc(OC(CF)CF)ccc3n(C3CCN(C=O)CC3)c2=O)ccc1OCC(=O)N1CCCCC1 [No. 251, 4-{6-[2-fluoro-1-(fluoromethyl)ethoxy]-3-[3-methoxy-4-(2-oxo-2-(piperidin-1-yl)ethoxy)benzyl]-2,4-dioxo-3,4-dihydroquinazolin-1(2H)-yl}piperidine-1-carbaldehyde]
IC50 (Human PDE7; [3]): 46 nM

N#Cc1cc(Cn2c(=O)c3cc(OC(CF)CF)ccc3n(C3CCN(C=O)CC3)c2=O)ccc1-c1ccccc1 [No. 294, 4-({6-[2-fluoro-1-(fluoromethyl)ethoxy]-1-(1-formylpiperidin-4-yl)-2,4-dioxo-1,4-dihydroquinazolin-3(2H)-yl}methyl)biphenyl-2-carbonitrile]
IC50 (Human PDE7; [3]): 37 nM
IC50 (PDE8): 15 nM
